# Numbers after ± are expanded uncertainties.
# Legend:
# [1] = refractive index (Na D-line) (dimensionless); conditions: 293.15 K; 101.33 kPa; Liquid; Standard Abbe refractometry
# [2] = Molar enthalpy of transition or fusion; conditions: Crystal; DSC
# [3] = Crystal; DSC
Compound,refractive index [1],Molar enthalpy of transition or fusion [2] [kcal/mol],Triple point temperature [3] [K]
CC(C)CO [2-methyl-1-propanol],1.3957 ± 0.0011,–,–
CCC(C)=O [butanone],1.379 ± 0.0011,–,–
C[S+](C)[O-] [dimethyl sulfoxide],1.4791 ± 0.0011,–,–
CN(C)C=O [dimethylformamide],1.4303 ± 0.001,–,–
CCCO [propan-1-ol],1.3852 ± 0.001,–,–
CC(C)O [propan-2-ol],1.3774 ± 0.0011,–,–
O [water],1.3331 ± 0.001,–,–

# Continued, values first:
refractive index [1],Molar enthalpy of transition or fusion [2] [kcal/mol],Triple point temperature [3] [K],Compound
–,4.19 ± 0.43,396.8 ± 1,O=C(O)c1ccccc1 [benzoic acid]
1.3986 ± 0.0011,–,–,CCCCO [butan-1-ol]
1.3613 ± 0.0011,–,–,CCO [ethanol]
1.3892 ± 0.0011,–,–,CCCC(C)=O [pentan-2-one]
–,11.4 ± 1.17,444.6 ± 1,CC[C@@H]([C@H](C)O)n1ncn(-c2ccc(N3CCN(c4ccc(OC[C@@H]5CO[C@@](Cn6cncn6)(c6ccc(F)cc6F)C5)cc4)CC3)cc2)c1=O [posaconazole]
–,6.43 ± 0.645,403.4 ± 1,C[C@@H](c1ncncc1F)[C@](O)(Cn1cncn1)c1ccc(F)cc1F [voriconazole]
